From patent US4269831A, “Topical dermatological method of use of an androstenopyrazole” (priority 1979, dated 1981)

Key:
[1] = test system: flank organ of mature male Syrian golden hamsters; assay: Topical comparison in mature male hamsters, right flank organ treated, left flank organ vehicle (Tables II, III); assay type: in vivo; conditions: for Flank organ Diameter, RFO / Flank organ Weight, RFO / Flank organ Development, RFO (median score): treated right flank organ; for Flank organ Diameter, RFO / Flank organ Weight, RFO: mean; for Flank organ Diameter, RFO / Flank organ Weight, RFO / Flank organ Development, RFO (median score) / Flank Organ (Mean Score) Area / Flank Organ (Mean Score) Elevation / Flank Organ (Mean Score) Hair Growth / Flank Organ (Mean Score) Hair Pigmentation / Flank Organ (Mean Score) Skin Pigmentation: n=7; for Flank organ Development, RFO (median score): scale 0 to 4 (0 barely visible, 4 as in mature male); for Flank Organ (Mean Score) Area / Flank Organ (Mean Score) Elevation / Flank Organ (Mean Score) Hair Growth / Flank Organ (Mean Score) Hair Pigmentation / Flank Organ (Mean Score) Skin Pigmentation: RFO, scale 0 to 4
Description: (§1) Each flank organ of mature male Syrian golden hamsters having a mean initial body weight of 105 g. was medicated topically with the compound of Formula I dissolved in ethanol (5 microliters) for twenty-one days. Flank organ hair was clipped three times per week to facilitate application. On the day following the last medication the hamsters were killed with an overdose of sodium pentobarbital. The flank organ parameters and the weights of seminal vesicles, adrenals and thymus glands were determined. Flank organ diameter was measured parallel to the breadth of the hamster with vernier calipers. Wet weights were obtained on flank organs excised around the periphery of the pigmented area. The topical activity of the compound of Formula I was also compared with that of 17β-hydroxy-17α-propylandrost-4-en-3-one, an antiandrogen, and hydrocortisone. In this experiment the right flank organ was treated with the test compound while vehicle-treated left flank organ served as control. […] In addition, the individual characteristics of the flank organ, elevation (thickness relative to adjacent skin), area, hair pigment, skin pigment and hair growth were all scored separately on a scale of 0 to 4.

[2] = test system: flank organ of mature male Syrian golden hamsters; assay: Topical antiandrogenic activity in mature male hamsters, both flank organs medicated (Table I); assay type: in vivo; conditions: mean, n=8
Description: as §1

[3] = molecular target: T1, hamster flank organ cytosol receptor (Mesocricetus auratus, UniProt A0A1U7QL32); assay: Binding competition with 3H-dihydrotestosterone in hamster flank organ cytosol in vitro (Table VI); parameters: species or system Syrian golden hamsters; conditions: 3H-DHT 2 nM, two hours, no antagonist 13.96
T1 construct: The homogenate was centrifuged (120,000×g for 45 min.) and the cytosol was frozen and stored at -70° C; from tissue; host or cells: flank organ cytosol of castrated male Syrian golden hamsters
T1 sequence (A0A1U7QL32 1-900): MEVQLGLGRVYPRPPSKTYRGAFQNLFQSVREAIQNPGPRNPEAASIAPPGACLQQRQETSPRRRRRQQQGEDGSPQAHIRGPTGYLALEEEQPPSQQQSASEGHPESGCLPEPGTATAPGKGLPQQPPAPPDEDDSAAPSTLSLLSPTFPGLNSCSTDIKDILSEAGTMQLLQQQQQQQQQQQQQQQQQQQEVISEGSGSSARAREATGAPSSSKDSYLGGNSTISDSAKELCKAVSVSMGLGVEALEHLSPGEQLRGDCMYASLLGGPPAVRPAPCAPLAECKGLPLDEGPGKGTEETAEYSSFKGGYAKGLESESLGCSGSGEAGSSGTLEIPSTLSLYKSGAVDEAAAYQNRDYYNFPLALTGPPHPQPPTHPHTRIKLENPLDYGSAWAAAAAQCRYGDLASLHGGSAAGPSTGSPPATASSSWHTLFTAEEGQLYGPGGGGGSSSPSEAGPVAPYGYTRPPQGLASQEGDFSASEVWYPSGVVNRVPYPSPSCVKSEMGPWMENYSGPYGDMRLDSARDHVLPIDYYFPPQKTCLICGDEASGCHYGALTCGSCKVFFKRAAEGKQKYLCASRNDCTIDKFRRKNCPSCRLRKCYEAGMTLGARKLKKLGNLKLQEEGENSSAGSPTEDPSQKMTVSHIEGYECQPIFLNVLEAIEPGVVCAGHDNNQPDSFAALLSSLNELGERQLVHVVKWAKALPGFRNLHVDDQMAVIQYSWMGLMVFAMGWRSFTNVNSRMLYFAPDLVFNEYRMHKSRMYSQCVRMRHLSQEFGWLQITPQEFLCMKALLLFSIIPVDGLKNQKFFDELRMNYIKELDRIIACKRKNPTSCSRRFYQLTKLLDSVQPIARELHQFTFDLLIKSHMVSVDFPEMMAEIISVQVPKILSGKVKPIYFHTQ
Experimental: The flank organs of twelve mature male Syrian golden hamsters each weighing from 120 to 140 g. and having been castrated 16-18 hours earlier were excised, dissected under the microscope to remove the dermis and the muscle layers and homogenized in buffer (1.5 volumes of 50 mM Tris, 0.5 mM mercaptoethanol and 0.1 mM ethylenediamine tetracetate, pH 7.4). The homogenate was centrifuged (120,000×g for 45 min.) and the cytosol was frozen and stored at -70° C. Six of the cytosol samples were thawed at room temperature, pooled and used for evaluation of in vitro binding.

[4] = test system: supracaudal glands of mature male guinea pigs; assay: Topical study on supracaudal glands of guinea pigs; assay type: in vivo; conditions: 21 days
Experimental: The supracaudal glands of mature male guinea pigs having a mean initial body weight of 431 g. (8 guinea pigs per group) were medicated topically with a solution of the compound of Formula I (400 micrograms) in ethanol (10 microliters). Guinea pigs treated with ethanol served as controls. After 21 days of treatment the guinea pigs were killed and the areas of the supracaudal glands (pi×long radius×short radius) were measured in situ with calipers. The weights of seminal vesicles, adrenals and thymus glands were also measured.

[5] = 1 μg/flank organ/day topical for 21 days
[6] = 5 μg/flank organ/day topical for 21 days
[7] = 25 μg/flank organ/day topical for 21 days
[8] = 125 μg/flank organ/day topical for 21 days

Q: Which “Flank organ Diameter, RFO” value ([1]; 5 μg/RFO for 21 days) does the source give for CC#C[C@]1(O)CC[C@H]2[C@@H]3C[C@H](C)C4=Cc5[nH]ncc5C[C@]4(C)[C@H]3CC[C@@]21C [Compound of Formula I, 17β-Hydroxy-6α-methyl-17α-propynyl-4-androsteno[3,2-c]-pyrazole] here?
A: Its value is 5.2 mm.

Q: And the “Flank organ Weight, RFO” value ([1]; 5 μg/RFO for 21 days)?
A: Its value is 35.9 mg.

Q: What about the “Flank organ Development, RFO (median score)” value ([1]; 5 μg/RFO for 21 days) of the same molecule?
A: The value was 3.

Q: What about the “Flank organ Diameter, RFO” value ([1]; 50 μg/RFO for 21 days) of the same molecule?
A: Its value is 5.0 mm.

Q: And the “Flank organ Weight, RFO” value ([1]; 50 μg/RFO for 21 days)?
A: Its value is 33.2 mg.

Q: And the “Flank organ Development, RFO (median score)” value ([1]; 50 μg/RFO for 21 days)?
A: The value was 3.

Q: And the “Dose response of flank organ inhibition” value ([1]; 5 and 50 μg/RFO topical for 21 days)?
A: Its value is “flat dose response curve”.

Q: What about the “Flank Organ (Mean Score) Area” value ([1]; 5 μg/flank organ for 21 days) of the same molecule?
A: Its value is 3.3.

Q: What about the “Flank Organ (Mean Score) Elevation” value ([1]; 5 μg/flank organ for 21 days) of the same molecule?
A: Its value is 3.1.

Q: And the “Flank Organ (Mean Score) Hair Growth” value ([1]; 5 μg/flank organ for 21 days)?
A: The value was 1.4.

Q: What about the “Flank Organ (Mean Score) Hair Pigmentation” value ([1]; 5 μg/flank organ for 21 days) of the same molecule?
A: Its value is 3.6.

Q: What about the “Flank Organ (Mean Score) Skin Pigmentation” value ([1]; 5 μg/flank organ for 21 days) of the same molecule?
A: The value was 3.3.

Q: And the “Flank Organ (Mean Score) Area” value ([1]; 50 μg/flank organ for 21 days)?
A: Its value is 3.0.

Q: What about the “Flank Organ (Mean Score) Elevation” value ([1]; 50 μg/flank organ for 21 days) of the same molecule?
A: The value was 2.6.

Q: And the “Flank Organ (Mean Score) Hair Growth” value ([1]; 50 μg/flank organ for 21 days)?
A: The value was 0.

Q: And the “Flank Organ (Mean Score) Hair Pigmentation” value ([1]; 50 μg/flank organ for 21 days)?
A: Its value is 3.0.

Q: What about the “Flank Organ (Mean Score) Skin Pigmentation” value ([1]; 50 μg/flank organ for 21 days) of the same molecule?
A: Its value is 3.1.

Q: And the “Flank Organ Diameter” value [2, 5]?
A: Its value is 5.7 mm.

Q: And the “Flank Organ Wet Weight” value [2, 5]?
A: The value was 46.5 mg.

Q: And the “Organ Weights: Adrenal” value [2, 5]?
A: The value was 26.7 mg.

Q: What about the “Organ Weights: Seminal Vesicles” value [2, 5] of the same molecule?
A: The value was 288.3 mg.

Q: What about the “Organ Weights: Thymus” value [2, 5] of the same molecule?
A: The value was 57.1 mg.

Q: And the “Flank Organ Diameter” value [2, 6]?
A: Its value is 4.8 mm.

Q: What about the “Flank Organ Wet Weight” value [2, 6] of the same molecule?
A: Its value is 36.4 mg.

Q: And the “Organ Weights: Adrenal” value [2, 6]?
A: Its value is 25.5 mg.

Q: What about the “Organ Weights: Seminal Vesicles” value [2, 6] of the same molecule?
A: Its value is 277.6 mg.

Q: What about the “Organ Weights: Thymus” value [2, 6] of the same molecule?
A: The value was 53.2 mg.

Q: What about the “Flank Organ Diameter” value [2, 7] of the same molecule?
A: Its value is 4.7 mm.

Q: And the “Flank Organ Wet Weight” value [2, 7]?
A: Its value is 33.4 mg.

Q: And the “Organ Weights: Adrenal” value [2, 7]?
A: The value was 25.5 mg.

Q: And the “Organ Weights: Seminal Vesicles” value [2, 7]?
A: Its value is 270.3 mg.

Q: And the “Organ Weights: Thymus” value [2, 7]?
A: Its value is 53.7 mg.

Q: What about the “Flank Organ Diameter” value [2, 8] of the same molecule?
A: Its value is 4.8 mm.

Q: What about the “Flank Organ Wet Weight” value [2, 8] of the same molecule?
A: Its value is 30.7 mg.

Q: What about the “Organ Weights: Adrenal” value [2, 8] of the same molecule?
A: The value was 21.0 mg.

Q: And the “Organ Weights: Seminal Vesicles” value [2, 8]?
A: Its value is 267.3 mg.

Q: What about the “Organ Weights: Thymus” value [2, 8] of the same molecule?
A: Its value is 52.8 mg.

Q: What about the “% Bound (Mean ± SE) of 3H-dihydrotestosterone” value (“% Bound (Mean ± SE)” for short) ([3]; unlabelled antagonist 20 nM, molar ratio 10) of the same molecule?
A: The value was 9.94 ± .45%.

Q: What about the “% Bound (Mean ± SE)” value ([3]; unlabelled antagonist 200 nM, molar ratio 100) of the same molecule?
A: The value was 8.55 ± .56%.

Q: And the “% Bound (Mean ± SE)” value ([3]; unlabelled antagonist 2000 nM, molar ratio 1000)?
A: Its value is 6.30 ± .003%.

Q: What about the “Average area of the supracaudal glands” value ([4]; 400 micrograms in 10 microliters ethanol topical, control 104±7, p<0.01) of the same molecule?
A: Its value is 72±6 sq. mm.

Q: What about the “Changes in weights of seminal vesicles, adrenals or thymus glands” value ([4]; 400 micrograms topical, versus control group) of the same molecule?
A: Its value is “No changes”.
